Data: ChEMBL document CHEMBL1201862, “PubChem BioAssay data set” (2004)
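How tested: cells in 96-well plates exposed to compound for 48 hours at five concentrations. GI50 = concentration required for 50% inhibition of growth.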 Activity calls are given as the source filed them. Rule as the data show it: active = GI50 up to about 1.1 µM and inactive = higher.

Assays:
Experiment in all cases: inhibition of tumour cell growth, NCI panel, 48 h
OVCAR-3 = system: OVCAR-3
MDA-MB-435 = system: MDA-MB-435
NCI/ADR-RES = system: NCI/ADR-RES
EKVX = system: EKVX
K562 = system: K562
SF-268 = system: SF-268
Hs-578T = system: Hs-578T
UACC-62 = system: UACC-62
PC-3 = system: PC-3
ACHN = system: ACHN
MDA-MB-231 = system: MDA-MB-231
HOP-92 = system: HOP-92
HT-29 = system: HT-29
Malme-3M = system: Malme-3M
A549 = system: A549
HL-60 = system: HL-60
HCT-116 = system: HCT-116
MOLT-4 = system: MOLT-4

SMILES	GI50 (OVCAR-3)	GI50 (MDA-MB-435)	GI50 (NCI/ADR-RES)	GI50 (EKVX)	GI50 (K562)	GI50 (SF-268)	GI50 (Hs-578T)	GI50 (UACC-62)	GI50 (PC-3)	GI50 (ACHN)	GI50 (MDA-MB-231)	GI50 (HOP-92)	GI50 (HT-29)	GI50 (Malme-3M)	GI50 (A549)	GI50 (HL-60)	GI50 (HCT-116)	GI50 (MOLT-4)
COc1ccc2oc(=O)c(-c3nc4ccccc4o3)cc2c1	59.4 µM (inactive)	16.7 µM (inactive)	40.5 µM (inactive)	> 100 µM (inactive)	69.5 µM (inactive)	> 100 µM (inactive)	> 100 µM (inactive)	65 µM (inactive)	> 100 µM (inactive)	> 100 µM (inactive)	32.7 µM (inactive)	> 100 µM (inactive)	> 100 µM (inactive)	> 100 µM (inactive)	> 100 µM (inactive)	29.9 µM (inactive)	> 100 µM (inactive)	> 100 µM (inactive)
CCn1c2c(c3ccccc3c1=O)C(=O)c1ccccc1-2	> 100 µM (inactive)	> 100 µM (inactive)	> 100 µM (inactive)	> 100 µM (inactive)	> 100 µM (inactive)	> 100 µM (inactive)	74.5 µM (inactive)	> 100 µM (inactive)	> 100 µM (inactive)		85.7 µM (inactive)	> 100 µM (inactive)	> 100 µM (inactive)	> 100 µM (inactive)	> 100 µM (inactive)	> 100 µM (inactive)	> 100 µM (inactive)	3.12 µM (inactive)
NC(=O)NNc1nc2ccccc2c(=O)n1NC(=O)C(=O)Nc1ccc(Cl)cc1Cl	> 100 µM (inactive)	> 100 µM (inactive)	> 100 µM (inactive)	66.8 µM (inactive)	> 100 µM (inactive)	> 100 µM (inactive)	> 100 µM (inactive)	> 100 µM (inactive)	> 100 µM (inactive)	> 100 µM (inactive)	> 100 µM (inactive)	> 100 µM (inactive)	> 100 µM (inactive)	> 100 µM (inactive)	> 100 µM (inactive)		> 100 µM (inactive)	> 100 µM (inactive)
COC(=O)/C(=C\Nc1cccc(C)n1)S(=O)(=O)c1ccc(C)cc1	86.3 µM (inactive)	39 µM (inactive)	76.4 µM (inactive)		21.1 µM (inactive)	96.2 µM (inactive)	38.9 µM (inactive)	31.5 µM (inactive)	38.8 µM (inactive)	> 100 µM (inactive)	64.3 µM (inactive)	54.5 µM (inactive)	47.4 µM (inactive)	> 100 µM (inactive)	60 µM (inactive)	20.7 µM (inactive)	52.2 µM (inactive)	28.6 µM (inactive)
CCN1/C(=C/C#C/C(C)=C\c2sc3ccc(Cl)cc3[n+]2CC)Sc2ccc(Cl)cc21		2.94 µM (inactive)	15.7 µM (inactive)	4.25 µM (inactive)	0.552 µM (active)	5.22 µM (inactive)	4.72 µM (inactive)	3.32 µM (inactive)	2.33 µM (inactive)	3.38 µM (inactive)	5.93 µM (inactive)	1.58 µM (inactive)	3.08 µM (inactive)	1.85 µM (inactive)	3.57 µM (inactive)		2.57 µM (inactive)	
CC1CC(=O)N(N(C)C)C2(C#N)C(=O)N=C(N)C12C#N (centres undefined)		> 100 µM (inactive)	> 100 µM (inactive)	> 100 µM (inactive)	27.2 µM (inactive)	> 100 µM (inactive)	> 100 µM (inactive)	35.8 µM (inactive)	> 100 µM (inactive)	> 100 µM (inactive)	> 100 µM (inactive)	> 100 µM (inactive)	> 100 µM (inactive)	> 100 µM (inactive)	> 100 µM (inactive)	19.3 µM (inactive)	> 100 µM (inactive)	36.7 µM (inactive)
Cn1c(-c2cccs2)cc(-c2ccsc2)c1-c1cccs1	76.7 µM (inactive)	57.4 µM (inactive)	> 100 µM (inactive)	10.2 µM (inactive)	75.7 µM (inactive)	> 100 µM (inactive)	96.4 µM (inactive)	42.6 µM (inactive)	> 100 µM (inactive)	61.1 µM (inactive)	99.1 µM (inactive)	> 100 µM (inactive)	55.3 µM (inactive)	> 100 µM (inactive)	> 100 µM (inactive)		16.3 µM (inactive)	55.7 µM (inactive)
CC(C)(C)OC(=O)N(CCCCNC(=O)OCc1ccccc1)CCCNC(=O)OCc1ccccc1	> 100 µM (inactive)	35.8 µM (inactive)	8.59 µM (inactive)	50.4 µM (inactive)	23.3 µM (inactive)	> 100 µM (inactive)	> 100 µM (inactive)	87.9 µM (inactive)	10.7 µM (inactive)	9.86 µM (inactive)	90.2 µM (inactive)	23.4 µM (inactive)	18.5 µM (inactive)		9.71 µM (inactive)	5.28 µM (inactive)	41.8 µM (inactive)	3.27 µM (inactive)
N#CC(Cc1ccccc1)N(CCC1=CCCCC1)C(c1ccccc1)c1ccccc1 (centres undefined)	> 100 µM (inactive)	41.1 µM (inactive)	> 100 µM (inactive)	35.7 µM (inactive)	80.4 µM (inactive)	> 100 µM (inactive)	69.3 µM (inactive)	> 100 µM (inactive)	73.6 µM (inactive)	> 100 µM (inactive)	> 100 µM (inactive)	28.1 µM (inactive)	12.8 µM (inactive)	> 100 µM (inactive)	70.3 µM (inactive)		15.8 µM (inactive)	66.8 µM (inactive)
O=C(O)CCC(=O)OC1N=C(c2ccccc2Cl)c2cc([N+](=O)[O-])ccc2NC1=O (centres undefined)	32.7 µM (inactive)	> 100 µM (inactive)	> 100 µM (inactive)	> 100 µM (inactive)		67.5 µM (inactive)	> 100 µM (inactive)	> 100 µM (inactive)	23.6 µM (inactive)	57.8 µM (inactive)	> 100 µM (inactive)	69.2 µM (inactive)	> 100 µM (inactive)	> 100 µM (inactive)	> 100 µM (inactive)	38.5 µM (inactive)	20.5 µM (inactive)	
Cc1cccc2cc3c(ccc4ccccc43)c[n+]12	2.06 µM (inactive)	33.4 µM (inactive)	> 100 µM (inactive)	4.61 µM (inactive)	30.1 µM (inactive)	2.83 µM (inactive)	5.38 µM (inactive)	23 µM (inactive)	30.9 µM (inactive)	65.3 µM (inactive)	47.5 µM (inactive)		24.7 µM (inactive)	1.77 µM (inactive)	5.86 µM (inactive)	48.4 µM (inactive)	36.9 µM (inactive)	4.89 µM (inactive)
CC1(C)OCC([C@H]2O[C@@H](CC(=S)NCCCCCCCCCCCCNC(=S)C[C@H]3O[C@@H](C4COC(C)(C)O4)[C@H]4OC(C)(C)O[C@H]43)[C@H]3OC(C)(C)O[C@H]32)O1 (some centres undefined)	74.5 µM (inactive)	70.8 µM (inactive)	25.9 µM (inactive)	49.9 µM (inactive)	39.4 µM (inactive)	> 100 µM (inactive)	> 100 µM (inactive)		25.5 µM (inactive)	49.3 µM (inactive)	> 100 µM (inactive)	> 100 µM (inactive)	45.7 µM (inactive)		14.7 µM (inactive)	30.4 µM (inactive)	35.7 µM (inactive)	15.8 µM (inactive)
CCOC(=O)/C=C/[C@H](O)[C@@H](O)/C=C/C(=O)OCC	20.1 µM (inactive)	29.9 µM (inactive)	29.9 µM (inactive)	24.7 µM (inactive)	10.6 µM (inactive)	34.2 µM (inactive)	34.8 µM (inactive)	21.3 µM (inactive)	23.3 µM (inactive)	23.8 µM (inactive)	41.3 µM (inactive)	16.8 µM (inactive)	15.4 µM (inactive)	21.6 µM (inactive)	40.7 µM (inactive)		18.2 µM (inactive)	14.9 µM (inactive)
Cn1ccnc1SC(F)(F)c1nc2ccccc2o1	> 100 µM (inactive)	> 100 µM (inactive)	> 100 µM (inactive)		> 100 µM (inactive)	> 100 µM (inactive)	> 100 µM (inactive)	> 100 µM (inactive)	> 100 µM (inactive)	> 100 µM (inactive)	> 100 µM (inactive)	> 100 µM (inactive)	> 100 µM (inactive)	> 100 µM (inactive)	> 100 µM (inactive)		> 100 µM (inactive)	> 100 µM (inactive)
COc1ccc(-c2nc3ccccc3s2)cc1OC		> 100 µM (inactive)	42.5 µM (inactive)		> 100 µM (inactive)		13.4 µM (inactive)	37.4 µM (inactive)	34.9 µM (inactive)	40.4 µM (inactive)	19.7 µM (inactive)	6.59 µM (inactive)	31.6 µM (inactive)		51.6 µM (inactive)	> 100 µM (inactive)	45.1 µM (inactive)	> 100 µM (inactive)
O=C1Nc2ccc([N+](=O)[O-])cc2/C1=N/NC(=S)Nc1ccccc1	10 µM (inactive)	10.1 µM (inactive)	2.47 µM (inactive)	1.21 µM (inactive)	4.92 µM (inactive)		35.7 µM (inactive)	11 µM (inactive)	5.5 µM (inactive)	3.23 µM (inactive)	12.3 µM (inactive)	2.92 µM (inactive)	5.37 µM (inactive)		5.05 µM (inactive)	5.21 µM (inactive)	4.05 µM (inactive)	5.98 µM (inactive)
